Earlier results in patent US20250170284A1, “Hydroxamic Acid Macrocyclic Agents With Pendant Chelating Moieties And Complexes Thereof” (LUMIPHORE, INC., priority 2022, published 2025).

Settings: complex formation of the ligand with thorium(IV)

diethylenetriamine pentaacetic acid [DTPA]
Log K1: 30.34
